Two compounds from US20140057908A1, “Method of Treating Cancer” (Exelixis, Inc., priority 2010, published 2014) can be followed below.

The subject of data set [1] is castration-resistant prostate cancer (CRPC) with bone metastases. In words: adaptive phase 2 trial (NCT00940225), case studies of the first three CRPC patients with bone metastases. The class given is in vivo, human. To be noted: for Bone scan (best response) / PSA (best response) / tALP (best response) / Hemoglobin (best response): 100 mg dose; for Hemoglobin (best response): change from baseline; for PSA: Week 18. The source says: All patients provided informed consent before study screening.

The next data set has as its system xenograft tumor models. Briefly: xenograft tumor models. To be noted: in vivo.
The subject of data set [2] is pancreatic neuroendocrine tumor. Briefly: murine pancreatic neuroendocrine tumor model. As to conditions: mouse, in vivo.
The nature of data set [3]: gravimetric vapor sorption (GVS) study. As to conditions: crystalline form; 25° C. and 90% humidity. It counts as physicochemical. Here is the method: A gravimetric vapor sorption (GVS) study was run using a standard procedure. Samples were run on a dynamic vapor sorption analyzer (Surface Measurement Systems) running DVSCFR software. Sample sizes were typically 10 mg. A moisture adsorption desorption isotherm was performed as outlined below. The standard isotherm experiment, performed at 25° C., is a two-cycle run, starting at 40% RH, increasing humidity to 90% RH, decreasing humidity to 0% RH, increasing humidity again to 90% RH, and finally decreasing humidity to 0% RH in 10% RH intervals.

Structures are written as SMILES.

For the compound `COc1cc2nccc(Oc3ccc(NC(=O)C4(C(=O)Nc5ccc(F)cc5)CC4)cc3)c2cc1OC` [Compound 1, N-(4-{[6,7-bis(methyloxy)quinolin-4-yl]oxy}phenyl)-N′-(4-fluorophenyl)cyclopropane-1,1-dicarboxamide], in data set [1] (Patient 1), the “Bone scan (best response)” value is “Complete”, the “PSA (best response)” value is given as −78%, the “tALP (best response)” value is given as −77% and the “Hemoglobin (best response)” value is given as “+1.4 g/dL”. For the same compound, in data set [1] (Patient 1, Week 6), the CT scan response result was “partial response (PR)” and the “decrease in measurable target lesions (CT scan)” value stood at 33%. Moreover, in data set [1] (Patient 1, baseline 430 ng/mL), the PSA is 93.5 ng/mL. For the same compound, in data set [1] (Patient 2), the “PSA (best response)” value is reported as “+61%”, the “tALP (best response)” value is recorded as −6% and the “Hemoglobin (best response)” value is “+1.8 g/dL”. Besides, in data set [1] (Patient 2, Week 6), the “decrease in target lesions (CT scan)” value amounted to 13%. Moreover, in data set [1] (Patient 3), the “Bone scan (best response)” value is recorded as “Near resolution”, the “PSA (best response)” value is reported as −57%, the “tALP (best response)” value is listed as −77% and the “Hemoglobin (best response)” value is “+2.2 g/dL”. Also, in data set [1] (Patient 3, Week 6), the “decrease in measurable target lesions (CT scan)” value is given as 43%. Further, the PSA in data set [1] (Patient 3, 2.4 ng/mL at screening) is given as 1.2 ng/mL. Also, in data set [1] (all three patients), the “bone lesions, summary of three metastatic CRPC patients” value is “near complete resolution of bone lesions” and the “uptake of radiotracer on bone scan, summary” value is on record as “striking decrease in uptake of radiotracer on bone scan”. In the data set on xenograft tumor models, the “effect on tumors in xenograft tumor models” value was “causes tumor regression”. Also, in data set [2], the overall survival entry is recorded as “substantially improves overall survival”; the “tumor invasiveness and metastasis” value is “significantly reduces tumor invasiveness and metastasis”.
As for `COc1cc2c(Oc3ccc(NC(=O)C4(C(=O)Nc5ccc(F)cc5)CC4)cc3F)ccnc2cc1OCCCN1CCOCC1` [Compound 2, N-[3-fluoro-4-({6-(methyloxy)-7-[(3-morpholin-4-ylpropyl)oxy]quinolin-4-yl}oxy)phenyl]-N′-(4-fluorophenyl)cyclopropane-1,1-dicarboxamide], the “weight gain (GVS)” value in data set [3] stood at 2.5%. Moreover, the “effect on tumors in xenograft tumor models” value with xenograft tumor models is listed as “causes tumor regression”. In data set [2], the overall survival entry is on record as “substantially improves overall survival”; the “tumor invasiveness and metastasis” value is “significantly reduces tumor invasiveness and metastasis”.
